Source: PubChem BioAssay (NCI)
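96-well plates; 48 h exposure; 5 concentrations. Endpoints by linear interpolation between flanking doses. Not reached: highest tested concentration assigned. TGI marks complete inhibition of growth.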

Tests used:
Assay in all cases: DTP human tumour cell line panel, 48 h
IGROV1 ovarian = tested on: IGROV1 ovarian
OVCAR-4 ovarian = tested on: OVCAR-4 ovarian
HCC-2998 colon = tested on: HCC-2998 colon
UACC-257 melanoma = tested on: UACC-257 melanoma
SNB-75 CNS = tested on: SNB-75 CNS
CCRF-CEM leukemia = tested on: CCRF-CEM leukemia
MALME-3M melanoma = tested on: MALME-3M melanoma
SF-295 CNS = tested on: SF-295 CNS
OVCAR-8 ovarian = tested on: OVCAR-8 ovarian
ACHN renal = tested on: ACHN renal
SK-OV-3 ovarian = tested on: SK-OV-3 ovarian
LOX IMVI melanoma = tested on: LOX IMVI melanoma
NCI-H522 lung = tested on: NCI-H522 lung
RPMI-8226 leukemia = tested on: RPMI-8226 leukemia
UACC-62 melanoma = tested on: UACC-62 melanoma
HL-60(TB) leukemia = tested on: HL-60(TB) leukemia
OVCAR-3 ovarian = tested on: OVCAR-3 ovarian
COLO 205 colon = tested on: COLO 205 colon
BT-549 breast = tested on: BT-549 breast
A549 NSCLC = tested on: A549 NSCLC
SK-MEL-28 melanoma = tested on: SK-MEL-28 melanoma
K-562 leukemia = tested on: K-562 leukemia
SR leukemia = tested on: SR leukemia
RXF 393 renal = tested on: RXF 393 renal
SF-539 CNS = tested on: SF-539 CNS
CAKI-1 renal = tested on: CAKI-1 renal
HCT-116 colon = tested on: HCT-116 colon
HCT-15 colon = tested on: HCT-15 colon
EKVX NSCLC = tested on: EKVX NSCLC
SK-MEL-5 melanoma = tested on: SK-MEL-5 melanoma
A498 renal = tested on: A498 renal
U251 CNS = tested on: U251 CNS
DU-145 prostate = tested on: DU-145 prostate
NCI-H460 lung = tested on: NCI-H460 lung
786-0 renal = tested on: 786-0 renal
MCF7 breast = tested on: MCF7 breast
T-47D breast = tested on: T-47D breast
SW-620 colon = tested on: SW-620 colon
M14 melanoma = tested on: M14 melanoma
MDA-MB-435 = tested on: MDA-MB-435
HS 578T breast = tested on: HS 578T breast
HT29 colon = tested on: HT29 colon
HOP-92 NSCLC = tested on: HOP-92 NSCLC
KM12 colon = tested on: KM12 colon
OVCAR-5 ovarian = tested on: OVCAR-5 ovarian
NCI/ADR-RES ovarian = tested on: NCI/ADR-RES ovarian
NCI-H226 lung = tested on: NCI-H226 lung
SNB-19 CNS = tested on: SNB-19 CNS
UO-31 renal = tested on: UO-31 renal
NCI-H23 lung = tested on: NCI-H23 lung
MDA-N = tested on: MDA-N
TK-10 renal = tested on: TK-10 renal
PC-3 prostate = tested on: PC-3 prostate
MDA-MB-231 breast = tested on: MDA-MB-231 breast
MOLT-4 leukemia = tested on: MOLT-4 leukemia
SF-268 CNS = tested on: SF-268 CNS
SK-MEL-2 melanoma = tested on: SK-MEL-2 melanoma
SN12C renal = tested on: SN12C renal

Measured: TGI

CC(=O)C(N1CCCCC1)C(O)(C(F)(F)F)C(F)(F)F (stereo not given)
not listed: SF-268 CNS | SK-MEL-2 melanoma | SN12C renal
> 100 µM: all other assays above

C/C=C1/CN2CCC34C(=C(C(=O)OC)C1CC23)Nc1ccc(O)cc14 (stereo not given)
not listed: K-562 leukemia | SR leukemia | RXF 393 renal
> 100 µM: all other assays above
